Results: patent US10314883B2, “Compositions and methods for regulating blood pressure” (University of Virginia Patent Foundation, priority 2015, dated 2019)
Where two headings read alike, the source gives them in different places. Each block holds one molecule with its values, some of them ahead of it. No end group written: not given here.

How the values were obtained:
[1] = tested on: thoracodorsal arteries (TDA); assay: ATP release from intact TDA (luciferin:luciferase); assay type: cell-based, mouse; details: for ATP release from intact TDAs in response to agonist: five minutes of agonist, ARL67156 300 μmol/L
Experimental: Mouse TDAs of equal length were isolated and washed thoroughly to eliminate red blood cells. Vessels were placed in a well of a 96-well plate containing Krebs-HEPES solution supplemented with 1% BSA at 37° C. for 30 minutes to allow for degradation of any ATP released as a result of mechanical stimulation during manipulation of the vessel. For measurements performed on HEK cells: 24 hours after transfection, cells cultured in 24-well plates were cautiously washed twice with warm Krebs-HEPES-BSA and 300 μl of Krebs-HEPES-BSA was added to each well after the last wash as previously described. The plate was then kept in the incubator at 37° C. with 5% CO2 for 30 minutes to allow for degradation of ATP eventually released during the washes.
The ectonucleotidase inhibitor ARL67156 (300 μmol/L) was applied to each well. When indicated, ^10Panx1 (300 μmol/L) or the peptides analog to intracellular regions of Panx1 (3 μmol/L) were added along with the ARL67156. After a 30 minute incubation at 37° C. with the inhibitor(s), phenylephrine (100 μmol/L) or equivalent volume of Krebs-HEPES-BSA was added and the plate was kept at 37° C. After five minutes of phenylephrine stimulation, the media surrounding the TDA or the cells was transferred to an Eppendorf tube and centrifuged for five minutes at 5,000×g to eliminate eventual cell debris. Fifty microliters of the supernatant was transferred to a white-wall 96 well plate and placed in a FluoStar Omega luminometer. The ATP concentration was measured by adding 50 μL of luciferin:luciferase reagent (ATP bioluminescence assay kit HSII; Roche), which was injected into each well and the luminescence was immediately recorded. Data are expressed as a percent increase in ATP concentration compared to unstimulated condition. Each stimulated condition was compared to unstimulated condition performed on the same day, and all experiments were performed on at least 15 wells of HEK cells or three TDAs. Data were analyzed using a Kruskall Wallis test (non-parametric one-way ANOVA) followed by Dunn's post-hoc test.
To determine if the TDA response involved release of ATP, we dissected TDAs from C57Bl/6 mice and measured the accumulation of extracellular ATP in response to various agonists in the medium (FIG. 1E, inset). The TDAs were placed in a well of a 96 well plate in Krebs-HEPES solution and treated with the ectonucleotidase inhibitor ARL67156 for 30 minutes. Next, arteries were treated with a contractile agonist for five minutes and the amount of ATP in the media surrounding the vessel was determined using the ATP bioluminescence assay kit HSII (Roche).

[2] = tested on: thoracodorsal arteries (TDA); details: for EC50: read-out: EC50 of agonist for TDA constriction
[3] = tested on: thoracodorsal arteries (TDA); assay: tissue or blood; details: Mus musculus
[4] = tested on: thoracodorsal arteries (TDA); assay: Pressure myography: agonist-induced constriction of pressurized TDAs from C57Bl/6 mice with pannexin inhibitors or Panx1 mimetic peptides; assay type: cell-based, mouse; details: for effect on phenylephrine-induced constriction of pressurized TDAs: TAT-linked peptides, C57Bl/6 TDAs
Experimental: The contractile responses of pressurized thoracodorsal arteries (TDA) were measured as previously described. Briefly, TDA were isolated and placed in cold Krebs-HEPES until cannulation in a pressure arteriograph (Danish MyoTechnology). After a 30 minute equilibration period, cumulative concentrations of contractile agonists were applied to the TDA pressurized at 80 mmHg, and the vessel was visualized with an Olympus IX-71 microscope attached to a Hamamatsu EM-CCD camera coupled to Slidebook imaging software. […] Lastly, maximal diameter was measured at the end of each experiment in calcium-free Krebs-HEPES supplemented with EGTA (1 mmol/L) and sodium nitroprusside (10 μmol/L). In cases where the vessels were not constricting to the contractile agonist, their viability was assessed by applying 40 mM KCl and only TDA reaching 30% of the maximal diameter were considered for analysis. The contractile responses, as well as the basal tone, are expressed as a percentage of the maximal diameter.
Using pressure arteriography on TDA dissected from C57Bl/6 mice (as described; and aortic ring contraction, as described), we measured the effect of pannexin inhibitors, probenecid and 10Panx1, on the contractile response upon stimulation with different vasoconstrictors: phenylephrine (FIG. 1A), noradrenaline (also called norepinephrine) (FIG. 1B), serotonin (also known as 5-HT) (FIG. 1C) and endothelin-1 (FIG. 1D). […] In contrast, ^10Panx1 and probenecid had no effect on contraction of TDA measured in response to cumulative concentrations of serotonin or endothelin-1 (FIGS. 1C-D; Table 1).
To determine the region of Panx1 necessary for channel activation in response to α1AR stimulation, we produced short peptides derived from the intracellular regions of the Panx1 channel. We generated two peptides mimicking unique mouse Panx1 (mPanx1) sequences in the first intracellular loop (IL1 and IL2) and two peptides mimicking unique mPanx1 sequences in the C-terminal region, one in second intracellular loop (CT1) and one in the C-terminal tail (CT2) (FIG. 4A scissors indicate caspase 3 cleavage site; Table 3). All peptides also contained a TAT sequence to facilitate entry into cells and we verified the intracellular localization of each peptide by immunofluorescence detection of the TAT sequence in TDAs pre-incubated with each peptide (FIG. 7A). We tested the effect of each peptide on phenylephrine-induced contractile responses in pressurized TDAs from C57Bl/6 mice (FIGS. 4B-E). […] Note that these differences in effects of phenylephrine were similar in magnitude to those observed in arteries from SMC-specific Panx1-knockout mice and littermate controls (FIG. 2C, Table 2).

[5] = TDAs from Cre^+/Panx1^FL mice, tamoxifen-injected (SMC Panx1 knockout)
[6] = TDAs from Cre^+/Panx1^WT mice, tamoxifen-injected
[7] = TDAs from Cre^−/Panx1^FL mice, tamoxifen-injected
[8] = TDAs from Cre^−/Panx1^WT mice, tamoxifen-injected
[9] = read-out: EC50 of agonist for TDA constriction, TDAs from Cre^+/Panx1^FL mice, tamoxifen-injected (SMC Panx1 knockout)
[10] = read-out: EC50 of agonist for TDA constriction, TDAs from Cre^+/Panx1^WT mice, tamoxifen-injected
[11] = read-out: EC50 of agonist for TDA constriction, TDAs from Cre^−/Panx1^FL mice, tamoxifen-injected
[12] = read-out: EC50 of agonist for TDA constriction, TDAs from Cre^−/Panx1^WT mice, tamoxifen-injected
[13] = in presence of ^10Panx1 (300 μmol/L) or probenecid (2 mmol/L)
[14] = pannexin inhibitors, ^10Panx1 300 μmol/L, probenecid 2 mmol/L
[15] = in presence of the named peptide

Molecule: CC[C@H](C)[C@H](NC(=O)[C@H](CC(=O)O)NC(=O)[C@H](CC(C)C)NC(=O)[C@H](Cc1c[nH]cn1)NC(=O)[C@@H]1CSSC[C@H](N)C(=O)N[C@@H](CO)C(=O)N[C@H]2CSSC[C@H](NC(=O)[C@H](CCC(=O)O)NC(=O)[C@H](CCCCN)NC(=O)[C@H](CC(=O)O)NC(=O)[C@H](CCSC)NC(=O)[C@H](CC(C)C)NC(=O)[C@H](CO)NC(=O)[C@H](CO)NC2=O)C(=O)N[C@@H](C(C)C)C(=O)N[C@@H](Cc2ccc(O)cc2)C(=O)N[C@@H](Cc2ccccc2)C(=O)N1)C(=O)N[C@H](C(=O)N[C@@H](Cc1c[nH]c2ccccc12)C(=O)O)[C@@H](C)CC [Endothelin-1, endothelin-1]
ATP release from intact TDAs in response to agonist [1]: neither serotonin nor endothelin-1 promoted ATP release | EMAX of agonist for TDA constriction [2, 5]: 38.9 ± 6.90 percentage of maximal diameter | EMAX of agonist for TDA constriction [2, 6]: 42.5 ± 4.82 percentage of maximal diameter | EMAX of agonist for TDA constriction [2, 7]: 42.2 ± 6.50 percentage of maximal diameter | EMAX of agonist for TDA constriction [2, 8]: 41.8 ± 4.95 percentage of maximal diameter | EC50 [2, 5]: 0.0301 ± 0.0146 µM | EC50 [2, 6]: 0.00564 ± 0.00294 µM | EC50 [2, 7]: 0.00377 ± 0.00056 µM | EC50 [2, 8]: 0.0184 ± 0.0109 µM

EC50 [3, 9]: 50.5 ± 24.8 µM | EC50 [3, 10]: 6.78 ± 3.2 µM | EC50 [3, 11]: 10.3 ± 1.3 µM | EC50 [3, 12]: 6.28 ± 1.45 µM
Molecule: NC[C@H](O)c1ccc(O)c(O)c1 [Noradrenaline, noradrenaline]
EMAX of agonist for TDA constriction [2, 5]: 56.4 ± 5.61 percentage of maximal diameter | EMAX of agonist for TDA constriction [2, 6]: 48.2 ± 1.82 percentage of maximal diameter | EMAX of agonist for TDA constriction [2, 7]: 45.6 ± 5.40 percentage of maximal diameter | EMAX of agonist for TDA constriction [2, 8]: 41.4 ± 5.10 percentage of maximal diameter

Molecule: CCCN(CCC)S(=O)(=O)c1ccc(C(=O)O)cc1 [Probenecid]
EMAX of endothelin-1 for TDA constriction [4, 13]: 34.6 ± 4.50 percentage of maximal diameter | EMAX of noradrenaline for TDA constriction [4, 13]: 74.9 ± 3.04 percentage of maximal diameter | EMAX of phenylephrine for TDA constriction [4, 13]: 72.6 ± 3.51 percentage of maximal diameter | EMAX of serotonin for TDA constriction [4, 13]: 39.5 ± 3.29 percentage of maximal diameter | effect on contraction of TDA in response to cumulative concentrations of serotonin or endothelin-1 [4, 14]: had no effect | effect on phenylephrine- and noradrenaline-mediated contraction of TDA [4, 14]: significantly inhibited

EC50 [3, 9]: 0.0142 ± 0.00553 µM | EC50 [3, 10]: 0.0407 ± 0.0122 µM | EC50 [3, 11]: 0.0652 ± 0.0409 µM | EC50 [3, 12]: 0.0238 ± 0.00507 µM
Molecule: NCCc1c[nH]c2ccc(O)cc12 [Serotonin]
ATP release from intact TDAs in response to agonist [1]: neither serotonin nor endothelin-1 promoted ATP release | EMAX of agonist for TDA constriction [2, 5]: 38.2 ± 5.60 percentage of maximal diameter | EMAX of agonist for TDA constriction [2, 6]: 40.1 ± 4.59 percentage of maximal diameter | EMAX of agonist for TDA constriction [2, 7]: 30.4 ± 1.78 percentage of maximal diameter | EMAX of agonist for TDA constriction [2, 8]: 36.1 ± 2.68 percentage of maximal diameter

effect on phenylephrine-induced ATP release from intact TDAs ([1]; phenylephrine 100 μmol/L, ^10Panx1 300 μmol/L, peptides 3 μmol/L): no effect
Molecule: YGRKKQRRR [TAT]
effect on phenylephrine-induced constriction of pressurized TDAs [4]: no significant effect | EMAX of phenylephrine for TDA constriction [4, 15]: 32.0 ± 6.21 percentage of maximal diameter

Molecule: mPanx1 178-VGQSLWEISE-187 (SEQ ID NO: 4) linked with a TAT sequence (YGRKKQRRR) (also: linked with TAT sequence (YGRKKQRRR), end not given here; UniProt Q9JIP4 178-187, looked up, fragment) [IL1]
effect on phenylephrine-induced constriction of pressurized TDAs [4]: did not affect | EMAX of phenylephrine for TDA constriction [4, 15]: 32.3 ± 3.81 percentage of maximal diameter

Molecule: mPanx1 381-IPTSLQTKGE-390 (SEQ ID NO: 6) linked with a TAT sequence (YGRKKQRRR) (also: linked with TAT sequence (YGRKKQRRR), end not given here; UniProt Q9JIP4 381-390, looked up, fragment) [CT2]
effect on phenylephrine-induced constriction of pressurized TDAs [4]: did not affect | EMAX of phenylephrine for TDA constriction [4, 15]: 52.3 ± 4.86 percentage of maximal diameter
